Assay [1] has as its system WEHI-231 OE cells. The assay is described as follows: Radiation mediated apoptosis of WEHI-231 OE cells after C2-ceramide pre-treatment. In kind it is cell-based, murine. As to conditions: C2-ceramide 30 minutes prior to 8 Gy, 24 hours. How it is done: FIG. 11A-1, FIG. 11A-2, and FIG. 11A-3. Exogenous ceramide can sensitize WEHI-231 OE cells to radiation mediated apoptosis. C2-ceramide (Cer) was added to 3×10^5 WEHI-231 OE cells 30 minutes prior to treatment with 8 Gy. Apoptosis was quantitated using propidium iodide staining and FACS analysis. Percent apoptotic cells are shown in gate R2 twenty-four hours following irradiation.
(§1) For viability staining, 2.5-3.5×10^5 cells were treated with varying concentrations of C2-ceramide, irradiation, or both.
(§2) In order to address the question of whether the resistance of the OE subline was due, in part, to alterations in ceramide metabolites or targets, three studies were performed. […] Both cell lines were equally susceptible to the effects of sphingosine kinase inhibition and the resulting […] in ceramide. […] Thus the radioresistance can be attributed to the lack of sphingomyelinase activation and the subsequent decreased ceramide production following irradiation.

Assay [2] concerns WEHI-231 JM cells. Nature of the assay: Viability by PI staining and FACS, WEHI-231 JM. In kind it is cell-based, murine. Conditions: 24 hours. How it is done: (§3) FIG. 11B. WEHI-231 JM and OE cells are equally sensitive to inhibition of sphingosine kinase and exogenous ceramide. Cells were treated with increasing concentrations of C2-ceramide or DL-threo-dihydrosphingosine--apotent inhibitor of sphingosine kinase. Viability was assayed using PI staining and FACS analysis 24 hours after treatment.
as §1, §2

The test system of assay [3] is WEHI-231 cells. Nature of the assay: Reactive oxygen species by dichlorodihydrofluorescein and FACS. The class given is cell-based, murine. As to conditions: 30 μM ceramide or 10 μM chelerythrine, 15 minutes; anti-IgM 2 hours. How it is done:
FIGS. 8A-8C. Exogenous ceramide and PKC inhibition induce oxidative changes in WEHI-231 cells. WEHI-231 cells (1×10^6) were treated with anti-IgM antibodies for 2 hours (FIG. 8A), 30 μM exogenous ceramide for 15 minutes (FIG. 8B) or 10 μM chelerythrine for 15 minutes (FIG. 8C). The reactive oxygen species in the cells was then measured using dichlorodihydrofluorescein (DCHF-DA) and quantitated using FACS analysis. Histogram analysis of fluorescence is plotted as LOG function.
The mechanisms by which ceramide may mediate cell death is yet unknown. […] Since changes in oxidative status induced a wide range of cellular responses including growth and apoptosis in WEHI-231 and other lymphocytes, the inhibition of PKC and a resulting accumulation of ceramide were studied for their affect on the level of reactive oxygen species within the cell using the dye dichlorodihydrofluorescein and FACS analysis. […] While non-toxic oxidation may promote cell growth, intracellular reduction may lead to the activation of cysteine proteases which are proposed mediators of apoptosis.

Assay [4] concerns SQ20-B cells. Nature of the assay: Clonogenic survival / colony formation assay. The class given is cell-based, human. As to conditions: 20 μM C2-ceramide 30 minutes prior to x-ray. How it is done: FIG. 2. Chelerythrine chloride enhanced IR-mediated cell killing through divisional death. Clonogenic survival was measured following exposure to increasing concentrations of chelerythrine and ionizing radiation. Cells were plated at cell numbers between about 500 cells/plate and about 2000 cells/plate and treated with 0 μM, 0.5 μM, or 1.0 μM chelerythrine chloride for 30 minutes prior to irradiation. After 2 weeks the colonies were scored for survival if they were composed of more than 50 cells. Results represent the mean of three individual experiments with duplicate or triplicate determinants. Error bars represent +/- the standard error of the means (SEM).
FIG. 5C. […] Closed circles represent radiation alone; closed squares represenet addition of 20 μM C2-Ceramide 30 minutes prior to x-ray.
Exponentially growing SQ20B cultures were trypsinized using 0.05% trypsin+0.02% EDTA. Cells (100 to 50,000) were plated in 100 mm tissue culture dishes. Chelerythrine or C2-ceramide was added 4 hours after plating and irradiated for 30 minutes after the addition of chelerythrine or C2-ceramide. The cells were irradiated using a GE Maxitron 250 x-ray generator operating at 250 kV and 26 mA with a dose rate of 114 cGy/min. After 12 days the cells were fixed and stained with crystal violet following standard procedures (Chmura et al., 1996a; 1996b). Colonies of >50 cells were scored as survivors.
Clonogenic survival was measured following increasing concentrations of chelerythrine chloride alone (0.5-1.5 μM), IR alone (1-9 Gy), or the combined treatment of cells with chelerythrine and IR. […] At a concentration of 500 nM, chelerythrine decreased cell survival to about 80% of untreated control cells (about 20% cell death). The combined treatment of cells with 500 nM of chelerythrine 30 minutes prior to treatment with 3 Gy of radiation decreased cell survival to about 30% of untreated cells (about 70% cell death). […] Cell shrinkage and nuclear condensation, characteristic of apoptosis, were not observed at these concentrations of chelerythrine and IR.

For assay [5], the system named is WEHI-231 OE cells. Nature of the assay: Viability by PI staining and FACS, WEHI-231 OE. The class given is cell-based, murine. As to conditions: 24 hours. How it is done: as §3, §1, §2
The subject of assay [6] is bcl-x WEHI-231, MG and WEHI-231 OE (JM) cells. The assay is described as follows: Effect of protease inhibitors on chelerythrine induced apoptosis in apoptosis-resistant cell lines. The class given is cell-based. As to conditions: ZVAD 20 μM, even at doses >15 μM chelerythrine. How it is done:
Using the procedures already described (Chmura, 1996; Chmura et al., 1996a; Chmura et al., 1996b), three different apoptosis-resistant cell lines were examined for their susceptibility to apoptosis induced by chelerythrine. The three cell lines used were bcl-x WEHI-231, which represents WEHI-231 cells that have been transfected with bcl-x and are highly resistant to radiation induce apoptosis, MG cells and the WEHI-231 OE (JM) cells previously described.
All three cell lines were treated with chelerythrine and x-irradiation as previously described (Chmura et al., 1996a; Chmura et al., 1996b) with the following modifications. Cells were pre-exposed to YVAD-cmk (100 μM), a protease inhibitor of the interleukin 1-b converting enzyme (ICE) subfamily or to ZVAD (20 μM), which inhibits the cpp32β family of proteases, for 30 minutes before being subjected to chelerythrine.

Assay [7] deals with SQ20-B cells. The assay is described as follows: Apoptosis in SQ20-B (propidium iodide FACS, DAPI staining, DNA laddering). In kind it is cell-based, human. How it is done: FIGS. 3A-3E. […] M1 defines the % of apoptotic cells as defined by (a) propidium iodide uptake of 1 log or more fluorescence and (b) a decrease in cell size of 50% or more. FL3-Height indicated the uptake of propidium by the cell. In FIG. 3A, M1=5%; FIG. 3B, M1=22%; FIG. 3C, M1=73%; FIG. 3D, M1=16%; FIG. 3E, M1=24%.
Cells undergoing apoptosis also shrink in size.
Cells, 5×10^5, were centrifuged at 1000 rpm and resuspended in approximately 100 μl cell culture media. The cell suspension was then mixed with 100 μl of DAPI (4',6-iamidino-2-phenylindole, Sigma D9542, 1 μg/ml in PBT (PBS+1% Triton X-100)). One drop of this mixture was placed on a microslide with a coverslip. The cells were viewed by fluorescence microscopy using an Olympus BX-40 microscope with a 100 Watt Mercury lamp, a 16 or 40 X Fluorite objective, N.A. 0.75, (Leco #1-UB527) and a UV filter cube (ex 330-385 nm, em 420 nm, wide band pass, Leco #U-M536). Images were photographed using an Optronics cooled low-light video camera (Leco #DEI-470TB) to which was attached a 2X coupler (Leco #HR200-CMT). The image was saved to a digital file at 72 dpi.
DNA degradation was assessed as previously described (Gottschalk et al., 1993; 1994). Briefly, following treatment in 100 mm plates or 24 well plates, cells were collected and lysed in 0.5 ml lysis buffer (0.6% SDS+10 mM EDTA, pH 7.0). […]

Turning to `CCCCCCCCCCCCC/C=C/[C@@H](O)[C@H](CO)NC(C)=O` [C2-ceramide], the “apoptotic response of irradiated cells” value in assay [1] is on record as “restored the apoptotic response at 24 hours”. For the same molecule, the IC50 in assay [2] and in assay [5] was 3000 nM throughout. Further, the “reactive oxygen species (ROS)” value in assay [3] was “reduced the ROS in the cells”. Also, the “clonogenic survival of irradiated cultures (words)” value was “decreased clonogenic survival” in assay [4] (listed as C2-Ceramide) and “enhanced IR induced cell killing” in assay [4] (listed as ceramide).
On to zVAD-fmk, for which the “inhibition of chelerythrine induced apoptosis” value in assay [6] is reported as “did block chelerythrine induced apoptosis”. Besides, the “apoptosis following combined IR and chelerythrine (2.5 μM), inhibition” value in assay [7] (zVAD-fmk 20 μM) was “inhibited apoptosis”. The “chelerythrine induced apoptosis, inhibition” value in assay [7] (zVAD-fmk with chelerythrine) is reported as “blocked chelerythrine induced apoptosis”.
